From publication PMC8467532, “DYRK1A Kinase Inhibitors Promote β-Cell Survival and Insulin Homeostasis” (Cells, 2021)
Read-outs that look alike come from different tables or passages of the source.

Key:
NFAT = NFAT luciferase reporter assay in HEK 293 NFAT cell line expressing DYRK1A; assay type: cell-based; details: various concentrations, 30 min, then ionomycin/PMA 5 h
Description: The Renilla luciferase reporter assay was performed in HEK 293 NFAT cell line, constitutively expressing DYRK1A, NFAT and Renilla luciferase under the control of an NFAT-RE promoter. The cells were seeded at 10,000 per well in 96-well white plates (Cellstar, Greiner; Burlington, MA, United States). The following day cells were incubated with the indicated concentration of inhibitor for 30 min, then the medium was changed, and cells were stimulated with 1 μM ionomycin and 10 nM PMA for 5 h. Next, the cell lysate was harvested to measure luciferase activity with Renilla-Glo Luciferase Assay System (Promega, Wisconsin, United States). All experiments were carried out in triplicates.

INS-1E cells = test: MTT cytotoxicity and cell survival assay, INS-1E; assay type: cell-based, rat; details: 24 h, 0 to 100 μM
DYRK1A in MIN6 cell line = test: DYRK1A expression by flow cytometry and confocal imaging; assay type: cell-based, mouse
Description: (§1) The presence of insulin, glucagon, C-peptide, Ki67, and DYRK1A was assessed in MIN6 and INS-1E pancreatic cell lines. Before imaging, cells were seeded onto slides at a density of 1 × 10^5 cells and maintained at 37 °C in 95% atmospheric air and 5% CO2 in a humidified atmosphere for 24 h. After washing with fresh medium, cells were incubated with 5 µM inhibitor solution for 24 h. After this time, the solution was replaced with a culture medium for another 48 h. The cells were fixed. Then after washing and permeabilization, they were incubated with specific antibodies diluted in PBS. Next, the cells were incubated for 10 min with Hoechst33342 (Sigma-Aldrich). After incubation, at 37 °C, in the dark, the cells were washed twice with HBSS (Gibco), the slide was transferred to a microscope table, and the cells were visualized under a Zeiss LSM 880 confocal microscope (Carl Zeiss, Jena, Germany) with a 63× immersion objective. Images were analyzed by Zeiss ZEN Software.
(§2) The presence of insulin, glucagon, C-peptide, Ki67 and DYRK1A was assessed in MIN6 and INS-1E pancreatic cell lines. Before analysis, cells were seeded onto slides at a density of 1 × 10^5 cells and maintained at 37 °C in 95% atmospheric air and 5% CO2 in a humidified atmosphere for 24 h. After washing with fresh medium, cells were incubated with 5 µM inhibitor solution for 24 h. After this time, the solution was replaced with a culture medium for another 48 h. The cells were then detached from the plate using trypsin. The cells were fixed. Then after washing and permeabilization, they were incubated with specific antibodies diluted in PBS. Cells were analyzed with BDAccuri flow cytometer and calculated using FlowJo software (Ashland, Oregon-based FlowJo LLC, a subsidiary of Becton Dickinson).

INS-1E and MIN6 cells [1] = test: GSIS and insulin, C-peptide, glucagon staining (flow cytometry, confocal); assay type: cell-based, rat, mouse; parameters: key to insulin+ / glucagon+ / C-peptide+: ↑: moderate; ↑↑: most potent
Description: Cells were cultured in a low glucose medium (5.5 mM) for 24 h. After this medium was changed to lower glucose medium (2 mM) for 2 h and then for high glucose medium (25 mM) for 30 min, media were harvested and/or cells were used for further analysis.
as §1, §2

[2] = tested on: hiPSC-derived pancreatic organoids; test: Insulin secretion assay in hiPSC-derived β-cell organoids (ELISA); assay type: cell-based, human; parameters: key to insulin secretion (ELISA): ↑: moderate; ↑↑: most potent
Description: Differentiation of hiPSC into iPSC-derived β-cell islets was carried out following the protocol established by Pellegrini et al. for pluripotent stem cells with slight modifications. A day before differentiation, 800,000 cells were seeded on coated with Geltrex (Gibco) 12 wells plate in Essential 8 medium (Gibco) with Y-27632 10 µM (Abcam). The following culture media were used for differentiation:
M1 medium: MCDB131 (Gibco) + 8 mM D-(þ)-Glucose (Sigma) + 1.23 g/L NaHCO3 (Sigma) + 2% BSA (Sigma) + 0.25 mM Vitamin C (Sigma) + 1% Pen/Strep (Lonza, Basel, Switzerland) + 1% L-glutamine (Lonza);
M2 medium: MCDB131 + 20 mM D-Glucose + 1.754 g/L NaHCO3 + 2% BSA + 0.25 mM Vitamin C + Heparin 10mg/mL (Sigma) + 1% Pen/Strep + 1% L-glutamine. All media were filter-sterilized through a 0.22 µm bottle top filter (Corning, New York, NY, USA). For sequential culture medium changes, small molecules and growth factors were added to the base media immediately before daily exchange. Media switches were as follows: days 0–3: STEMdiff™ Definitive Endoderm Kit ([…], Vancouver, Canada) used following manufacturer instructions; days 4–6: M1 medium + 50 ng/mL KGF (Peprotech, London, UK) + 1:50,000 ITS-X (Invitrogen, Carlsbad, CA, USA); days 7–8: M1 medium + 50 ng/mL KGF + 0.25 µM Sant1 (Sigma) + […] Retinoic acid (RA) (Sigma) + 500 nM PdBU (Millipore, Berlington, MA, United States) + 1:200 ITS-X + 200 nM LDN193189 (only Day 7) (Sigma); days 9–13: M1 medium + 50 ng/mL KGF + 0.25 µM Sant1 + 100 nM RA + 1:200 ITS-X; days 14–18: M2 medium + 0.25 µM Sant1 + 100 nM RA + 1 µM XXI (Millipore) + 10 µM Alk5i II (Selleckchem, Munich, Germany) + 1 µM L-3,30,5-Triiodothyronine (T3) (Sigma) + 20 ng/mL Betacellulin (R&D, Minneapolis, MN, USA) + 1:200 ITS-X.
(§3) The Insulin ELISA (Ultra Sensitive) was used to quantify insulin levels in control and treated organoids and isolated islets from the mouse pancreas (Crystal Chem, Downers Grove, IL, USA). Islets were homogenized in lysis buffer. Obtained buffer lysates and medium samples (after GSIS) were analyzed for total protein level and subsequently processed following the manufacturer’s protocol.

isolated mouse islets = test: Insulin secretion assay in isolated mouse islets (ELISA, immunostaining); assay type: cell-based; parameters: key to insulin secretion (ELISA): ↑: moderate; ↑↑: most potent; details: Table 2, Isolated islets
Description: as §3
Mice (male, initially 12 weeks old) were sacrificed by cervical vertebral dislocation. Before starting the incision, their bodies were sprayed with 70% EtOH. A hemostatic clamp was placed on both sides of the small intestine, leaving a small pocket to absorb the collagenase solution into the intestine. Next, 3 mL of cold collagenase solution was introduced into the pancreas through the bile duct. The pancreas was removed from the body and placed in a falcon tube containing 2 mL of collagenase solution. The tube was placed in a water bath at 37 °C. It was incubated for 13 min. At the end of this time, the falcon was shaken vigorously. The collagenase was inactivated with FBS. The sample was centrifuged for 30 s (300× g). This step was repeated 3 times. HBSS was then added to the sample and centrifuged two more times at the same speed as before. After the last centrifugation, HBSS was removed and Percoll (1.045 g/mL) (Sigma-Aldrich) was added. The Percoll solution was left to sediment for 5 min. After this time, the islets were collected from the bottom of the falcon. The step was repeated 3 times. Finally, islets were cultured in RPMI-1640 (Pan Biotech) supplemented with 2 mM L-glutamine (Gibco), 10% fetal bovine serum (FBS) and 1% penicillin/streptomycin and the culture medium was changed daily.
The presence of insulin, C-peptide, glucagon, Pdx-1 and Nkx6.1 was assessed in isolated mouse islets. Islets were fixed in PFA (3.8%) for 30 min, washed with PBS and 0.15% Triton X-100 was added for 1.5 h, then washed again with PBS and samples were transferred to 1% BSA + 0.05% Triton X-100 solution for 3 h. After this time, islets were incubated with primary antibody for 12 h at 4 °C. The secondary antibody was then added for 3 h. Next, the islets were incubated for 10 min with Hoechst33342. After incubation, at 37 °C, in the dark, the samples were washed twice with HBSS, the slide was transferred to a microscope table and the cells were visualized under a Zeiss LSM 880 confocal microscope (Carl Zeiss, Jena, Germany) with a 63× immersion objective. Images were analyzed by Zeiss ZEN Software.

[3] = tested on: adult human pancreatic beta cells; parameters: method as in PMID 34335466; details: cited from earlier work
INS-1E and MIN6 cells [4] = test: MTT cytotoxicity and cell survival assay, β-cell lines; details: Table 2, Cell lines
DYRK1A kinase domain = target: T1, DYRK1A kinase domain (Homo sapiens, UniProt Q13627); test: MST direct binding assay; details: MST direct binding, 20 nM fluorescent-labelled DYRK1A kinase domain
T1 construct: kinase domain of DYRK1A (126–490) was cloned into pET24a with C-terminal His-tag; made in house; host or cells: E. coli BL21 (DE3) RIL

DYRK1A [5] = target: T2, DYRK1A (Homo sapiens, UniProt Q13627); test: Cook activity assay (ATP regenerative NADH consuming DYRK1A activity assay); assay type: biochemical; details: Cook assay
T2 construct: kinase domain of DYRK1A (126–490) was cloned into pET24a with C-terminal His-tag; His-tag (C); made in house; host or cells: E. coli BL21 (DE3) RIL

INS-1E and MIN6 cells [6] = test: Ki67 proliferation analysis; assay type: cell-based, rat, mouse
DYRK1A [7] = target: T2, DYRK1A; details: cited from earlier work
mTOR = details: cited from earlier work
[8] = DYRK1A 0.5 µM, ATP 128 µM, DYRKtide 1 mM

COc1ccc2c(c1)[nH]c1c(C)nccc12 [Harmine, reference compound]
NFAT-controlled luciferase activity (NFAT): induced NFAT-controlled luciferase activity in a dose-dependent manner
effect on viability of INS-1E cells (INS-1E cells): did not show adverse effects
DYRK1A (fluorescence-positive cells, flow cytometry) (DYRK1A in MIN6 cell line; MIN6, 24 h with inhibitor, control 74%): 27.7%
DYRK1A signal in confocal imaging (DYRK1A in MIN6 cell line; MIN6, vs untreated control): reduced
insulin/C-peptide secretion (INS-1E and MIN6 cells [1]; GSIS, compound alone): enhanced insulin secretion and increases C-peptide levels
C-peptide+ (INS-1E and MIN6 cells [1]; Table 2, Cell lines): ↑
glucagon+ (INS-1E and MIN6 cells [1]; Table 2, Cell lines): ↑↑
insulin+ (INS-1E and MIN6 cells [1]; Table 2, Cell lines): ↑
insulin release ([2]; GSIS, compared with untreated control cells): markedly increased insulin release
insulin secretion (ELISA) ([2]; Table 2, hiPSC): ↑↑
insulin secretion (ELISA) (isolated mouse islets): ↑
increase in proliferation [3]: 2–4%
toxicity (INS-1E and MIN6 cells [4]): no

COc1ccc(N)cc1-c1cnc(N)c(C(=O)c2cccnc2)n1 [AC22, (3-azanyl-6-(5-azanyl-2-methoxy-phenyl)pyrazin-2-yl)-pyridin-3-yl-methanone]
Kd (DYRK1A kinase domain): 2600 ± 400 nM
Ki (DYRK1A [5]; [8]): 1600 ± 400 nM
NFAT-controlled luciferase activity (NFAT): induced NFAT-controlled luciferase activity in a dose-dependent manner
induction of β-cell proliferation (Ki67 labeling of insulin-labeled cells) (INS-1E and MIN6 cells [6]; 5 μM, vs untreated cells): most potent in inducing β-cell proliferation
IC50 (DYRK1A [7]; DYRK1A, Figure 1, ref Czarna et al. [44]): > 6 µM
Ki (DYRK1A [7]; Table S1, Cook assay, data previously reported, ref 1 (Czarna et al. 2018)): > 2800 nM

Cc1cccc(-c2n[nH]cc2-c2ccc3ncccc3n2)n1 [RepSox, 2-(3-(6-Methyl-2-pyridinyl)-1H-pyrazol-4-yl)-1,5-naphthyridine, reference compound]
effect on cell proliferation (INS-1E and MIN6 cells [6]; TGF-β inhibitor alone): did not affect cell proliferation

NS(=O)(=O)c1ccc(-c2cnc3[nH]cc(-c4cccnc4)c3c2)cc1 [AC12, 4-(3-(pyridin-3-yl)-1H-pyrrolo[2,3-b]pyridin-5-yl)benzenesulfonamide]
Kd (DYRK1A kinase domain): 380 ± 60 nM
Ki (DYRK1A [5]; [8]): 100 ± 30 nM
Ki (DYRK1A [5]; phosphorylation of substrate peptide): < 200 nM

CN1C(=O)[C@H]2CCC[C@H]2N(C2CCCC2)c2nc(Nc3ccc(C(N)=O)cc3)ncc21 [AC23, 4-(((6aS,9aR)-10-cyclopentyl-5-methyl-6-oxo-5,6,6a,7,8,9,9a,10-octahydrocyclopenta[e]pyrimido[5,4-b][1, 4]diazepin-2-yl)amino)benzamide]
Kd (DYRK1A kinase domain): 12900 ± 2600 nM
Ki (DYRK1A [5]; [8]): 1200 ± 400 nM
NFAT-controlled luciferase activity (NFAT): induced NFAT-controlled luciferase activity in a dose-dependent manner

C=CC(=O)Nc1ccc(C(=O)c2sc(Nc3ccc(N4CCN(C)CC4)cc3OC)nc2N)cc1 [AC25, N-(4-((4-azanyl-2-((2-methoxy-4-(4-methylpiperazin-1-yl)phenyl)amino)-1,3-thiazol-5-yl)carbonyl)phenyl)propenamide]
Kd (DYRK1A kinase domain): 1100 ± 600 nM
Ki (DYRK1A [5]; [8]): 1000 ± 300 nM
NFAT-controlled luciferase activity (NFAT): did not promote NFAT-activity

C=CC(=O)Nc1cccc(C(=O)c2sc(Nc3ccc(N4CCN(C)CC4)cc3)nc2N)c1 [AC28]
Kd (DYRK1A kinase domain): 27000 ± 17000 nM
Ki (DYRK1A [5]; [8]): 3000 ± 1000 nM
NFAT-controlled luciferase activity (NFAT): did not promote NFAT-activity

Nc1ccc(-c2ccc3ncc4ccc(=O)n(-c5cccc(C(F)(F)F)c5)c4c3c2)cn1 [Torin2, 9-(6-Aminopyridin-3-yl)-1-(3-(trifluoromethyl)phenyl) benzo [h][1, 6] naphthyridin-2 (1 H)-one, reference compound]
NFAT-controlled luciferase activity (NFAT): did not promote NFAT-activity
potency towards mTOR compared to AC27 (mTOR): 40 times
